Assay results from patent US20140155361A1, “METHOD FOR TREATING LUNG DISEASE” (Duke University, priority 2010, published 2014).

How the values were obtained:
[1] = test system: NQO1 deficient and C57BL/6 mice; test: elastase (PPE) model of emphysema with oral NAC; assay type: in vivo, mouse
Text: (§1) C57BL/6J mice were purchased from Jackson Laboratories (Bar Harbor, Me.) to be used as controls. A breeding colony was established at Duke University from breeding pairs of NQO1 deficient mice (backcrossed 16 generations on a C57BL/6 background) that were generously provided by Dr. Frank Gonzalez at the National Cancer Institute (Bethesda, Md.) (Radjendirane et al. J. Biol. Chem. 1998; 273:7382-7389). Male C57BL/6 or NQO1 deficient mice were used at one, two, four and six months of age. Experimental protocols were approved by the Institutional Animal Care and Use Committee at Duke University Medical Center and were performed in accordance with the standards established by the U.S. Animal Welfare Act.
At two months of age, WT and NQO1 deficient mice were treated with porcine pancreatic elastase (PPE, Sigma Aldrich, St. Louis Mo.) or saline by oropharyngeal aspiration. Briefly, immediately after inhalational anesthesia with 3% isoflurane (IsoFlo from Abbott Laboratories and Open-Circuit Gas Anesthesia System from Stoelting), animals were suspended by their upper incisors on a 60° incline board, and a liquid volume of PPE [25 μg/50 μL saline] or saline alone was delivered by oropharyngeal aspiration. Thirteen days post, the mice were phenotyped by flexiVent for pulmonary mechanics and lavage to collect bronchoalveolar lavage fluid (Foster et al. J Appl Physiol 2001; 90:1111-1117).
(§2) N-acetyl cysteine (Sigma Aldrich, St. Louis Mo.) was dissolved in the mouse water at a concentration of 2 mg/mL (March et al. Toxicol. Sci. 2006; 92:545-559). The water was changed every two days to prevent oxidation of the NAC. Mice were given NAC in their water for one week before LPS/Saline or PPE/Saline treatment and remained on the NAC water until phenotyping.
(§3) For the mice that underwent pulmonary function tests, the procedure required approximately five minutes per mouse from the point at which the mouse was administered anesthetic and prepared for surgery until the conclusion of pulmonary function measurements and euthanasia. Mice were anesthetized (60 mg/kg Nembutal) and surgically prepared with a tracheal cannula and then placed on a computer-controlled ventilator (flexiVent, SCIREQ, Montreal, Canada) at a constant tidal volume of 7.5 mL/kg and a […] of 3 cm H2O. The animals were then given a neuromuscular blockade (0.8 mg/kg Pancuronium Bromide, Sigma-Aldrich) and given three minutes to adjust to the ventilator. Pressure-volume curves were generated by slow stepwise (ramp) inflation to total lung capacity and deflation back to […] residual capacity (Lovgren et al. Am. J. Physiol. 2006; 291:L144-156). The static compliance measurements were calculated from the pressure volume curves ([…]).
(§4) Alveolar surface density (ASD) was calculated as previously described (Auten et al. Am. J. Physiol. 2001; 281:L336-344). Briefly, ten digital images of parenchymal architecture from each mouse were captured at 40× magnification were chosen (omitting large vascular and bronchiolar structures) from 5 μm thick sections of paraffin embedded, formalin-fixed mouse lung that were stained with hematoxylin and eosin (H&E stain, AML Laboratories, Rosedale, Md.). Five random fields were chosen (omitting large vascular and bronchiolar structures) and images were overlaid with an 11°-11 point grid (Metamorph; Universal Imaging, West Chester, Pa.) for point (P) and intercept (I) counting of the alveolar septa. Alveolar volume density was calculated from Palveoli/Pparenchyma and alveolar surface density from 2Ialveoli/LT, where LT was the test line length within the lung parenchyma.

[2] = test system: NQO1 deficient and C57BL/6 mice; test: LPS-induced murine emphysema with oral NAC; assay type: in vivo, mouse
Text: as §1
LPS (Sigma Aldrich, St Louis Mo.) was reconstituted with sterile saline and added for a dose of 5 μg/m^3. At one month of age, mice were placed in stainless steel wire cage exposure racks in a 20-L plexiglass chamber and exposed to aerosolized LPS for 2.5 hours. LPS solution was aerosolized with a 6-jet atomizer (TSI) with all output directed to the exposure chamber. Filtered air was supplied to the atomizer at 30-psi gauge pressure (Brass et al. Am. J. Resp. Cell. Mol. 2008; 39:584-590). Mice were then returned to their cages. The mice were exposed every other day for a total of three exposures and then given four weeks to recover.
as §2, §3
as §4, with “Five random fields were chosen (omitting large vascular and bronchiolar structures) and images were overlaid with an 11°-11 point grid (Metamorph; Universal Imaging, West Chester, Pa.) for point (P) and intercept (I) counting of the alveolar septa.” left out, “parenchyma. […]” for “parenchyma.”

[3] = test system: mouse alveolar macrophage cell line (MHS cells); test: oxidative stress in macrophage cell line after NQO1 inhibitor or inducer pretreatment and LPS or PMA challenge; assay type: cell-based; conditions: pretreated 4 hours (100 nM MAC220 or 5-10 μM β-lapachone), then PMA or LPS 2 hours, supernatant
Experimental: Murine alveolar macrophage cell line (MH-S cell) purchased from ATCC (Manassas, Va.) was used for in vitro NQO1 blocking and inducing assays. Cells were cultured in RPMI1640 medium supplemented with 10% heat-inactivated fetal bovine serum, 2 mM L-glutamine, penicillin (100 U/ml), streptomycin (100 μg/ml), and 10 mM HEPES. To determine the role of NQO1 in macrophage response to LPS or PMA, cells at 80-90% confluence were pretreated with 10 μM of dicumerol for 1 hour, 100 nM of MAC220 or 5-10 μM of β-lapachone for 4 hours, and then were challenged by 20 ng/ml of LPS or 1 μM of PMA. Cell culture supernatants were collected after 2 hour incubation. Same volume of DMSO and PBS were used as vehicle control.

[4] = test system: human cancer cell lines; conditions: single agent, read-out: antineoplastic activity (IC50); cited from earlier work
[5] = molecular target: T1, human DNA Topoisomerase I (Homo sapiens, UniProt P11387); conditions: cited from earlier work
T1 sequence (P11387 1-765): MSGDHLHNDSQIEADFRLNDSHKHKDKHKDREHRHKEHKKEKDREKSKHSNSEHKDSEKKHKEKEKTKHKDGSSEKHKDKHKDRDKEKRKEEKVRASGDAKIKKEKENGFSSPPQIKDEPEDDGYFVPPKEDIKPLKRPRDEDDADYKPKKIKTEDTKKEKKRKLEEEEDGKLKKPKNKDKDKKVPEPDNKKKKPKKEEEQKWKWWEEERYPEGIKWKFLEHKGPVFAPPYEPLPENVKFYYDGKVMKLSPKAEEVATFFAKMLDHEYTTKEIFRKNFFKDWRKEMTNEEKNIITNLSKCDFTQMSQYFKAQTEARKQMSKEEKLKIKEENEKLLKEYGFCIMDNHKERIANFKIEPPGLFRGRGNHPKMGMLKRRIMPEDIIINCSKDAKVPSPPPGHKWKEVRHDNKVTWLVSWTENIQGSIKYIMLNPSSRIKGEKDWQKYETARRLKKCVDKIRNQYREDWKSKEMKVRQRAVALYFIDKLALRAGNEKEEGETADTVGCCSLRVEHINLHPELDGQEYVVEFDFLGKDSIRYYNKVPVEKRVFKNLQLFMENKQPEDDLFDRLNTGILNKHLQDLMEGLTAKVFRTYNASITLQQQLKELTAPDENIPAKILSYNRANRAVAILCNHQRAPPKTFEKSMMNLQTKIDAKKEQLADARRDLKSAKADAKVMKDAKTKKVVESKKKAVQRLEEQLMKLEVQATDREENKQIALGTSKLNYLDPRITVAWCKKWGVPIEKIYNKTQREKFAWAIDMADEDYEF

[6] = test system: human DNA Topoisomerase II; conditions: cited from earlier work
[7] = BALF, NQO1 and WT mice given NAC prior to elastase challenge
[8] = NQO1 deficient mice, oral NAC in water + elastase vs elastase only
[9] = LPS treated NQO1 deficient mice compared to LPS+NAC NQO1 deficient mice

Compound | 8-isoprostane levels [1, 7] | protein carbonyls [1, 7] | Glutathione measurements in the BAL ([1]; NQO1 deficient mice treated with NAC, elastase model) | lung compliance [1, 8] | pressure-volume measurements [1, 8] | neutrophils in BALF ([1]; PPE only group compared to the PPE+NAC group, NQO1 deficient and C57BL/6 mice) | mean line intercepts ([1]; PPE+NAC vs PPE groups) | surface alveolar density ([1]; PPE+NAC vs PPE groups) | 8-isoprostane concentrations in the BALF [2, 9] | protein carbonyls in the BALF [2, 9] | polymorphonuclear leukocytes, share of BALF cells ([2]; LPS+NAC treated NQO1 deficient mice (LPS only: 5-9%)) | Glutathione measurements in the BAL ([2]; NQO1 deficient mice treated with NAC, LPS model) | static compliance ([2]; NQO1 deficient mice, LPS + NAC vs LPS) | oxidative stress level [3] | IC50 [4] [µM] | in vitro inhibition of human DNA Topoisomerase I [5] | in vitro inhibition of human DNA Topoisomerase II [6]
CC(=O)N[C@@H](CS)C(=O)O [NAC, N-acetyl cysteine] | reduction | reduction | increased concentrations | partially attenuated | partially attenuated | significant increase | complete abrogation of the elastase effect | complete abrogation of the elastase effect | significant increase | significant increase | 1-4% | increased concentrations | attenuated |  |  |  | 
CC1(C)CCC2=C(O1)c1ccccc1C(=O)C2=O [β-lapachone, 3,4-dihydro-2,2-dimethyl-2H-naphtho[1,2-b]pyran-5,6-dione] |  |  |  |  |  |  |  |  |  |  |  |  |  | dose response decrease | 1 to 10 | potent in vitro inhibition | potent in vitro inhibition
